Experimental findings from patent publication US20030170643A1, “Regulation of apoB treatment and drug screening for cardiovascular and metabolic disorders or syndromes” (priority 1999, published 2003) are described below.

The target in this test is T1, purified bovine MTP (Bos taurus, UniProt P55156).
T1 sequence (P55156 12-887): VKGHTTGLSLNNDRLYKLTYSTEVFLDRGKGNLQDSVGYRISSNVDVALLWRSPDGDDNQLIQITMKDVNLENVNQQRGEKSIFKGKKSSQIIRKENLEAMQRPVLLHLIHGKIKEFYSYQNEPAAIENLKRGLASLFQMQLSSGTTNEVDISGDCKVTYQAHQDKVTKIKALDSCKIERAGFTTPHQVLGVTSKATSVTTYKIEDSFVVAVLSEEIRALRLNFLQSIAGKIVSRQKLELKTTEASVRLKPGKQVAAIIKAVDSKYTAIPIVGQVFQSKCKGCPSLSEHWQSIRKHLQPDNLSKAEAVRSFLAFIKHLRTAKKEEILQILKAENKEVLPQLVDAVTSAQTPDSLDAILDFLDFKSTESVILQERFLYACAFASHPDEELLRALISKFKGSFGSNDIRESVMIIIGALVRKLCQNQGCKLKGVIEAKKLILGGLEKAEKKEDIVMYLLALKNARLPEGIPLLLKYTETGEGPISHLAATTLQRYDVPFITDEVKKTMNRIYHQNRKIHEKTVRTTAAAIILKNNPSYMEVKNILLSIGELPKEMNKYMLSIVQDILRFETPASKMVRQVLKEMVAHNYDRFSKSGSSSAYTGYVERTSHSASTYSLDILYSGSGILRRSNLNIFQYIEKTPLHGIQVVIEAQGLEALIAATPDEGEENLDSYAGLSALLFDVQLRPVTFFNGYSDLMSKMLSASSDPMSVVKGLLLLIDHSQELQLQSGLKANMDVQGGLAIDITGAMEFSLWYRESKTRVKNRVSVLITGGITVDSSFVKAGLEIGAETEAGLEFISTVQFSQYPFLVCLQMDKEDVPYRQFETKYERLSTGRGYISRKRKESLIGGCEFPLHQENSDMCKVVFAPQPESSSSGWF
T1 sequence (P05307 21-510 partner): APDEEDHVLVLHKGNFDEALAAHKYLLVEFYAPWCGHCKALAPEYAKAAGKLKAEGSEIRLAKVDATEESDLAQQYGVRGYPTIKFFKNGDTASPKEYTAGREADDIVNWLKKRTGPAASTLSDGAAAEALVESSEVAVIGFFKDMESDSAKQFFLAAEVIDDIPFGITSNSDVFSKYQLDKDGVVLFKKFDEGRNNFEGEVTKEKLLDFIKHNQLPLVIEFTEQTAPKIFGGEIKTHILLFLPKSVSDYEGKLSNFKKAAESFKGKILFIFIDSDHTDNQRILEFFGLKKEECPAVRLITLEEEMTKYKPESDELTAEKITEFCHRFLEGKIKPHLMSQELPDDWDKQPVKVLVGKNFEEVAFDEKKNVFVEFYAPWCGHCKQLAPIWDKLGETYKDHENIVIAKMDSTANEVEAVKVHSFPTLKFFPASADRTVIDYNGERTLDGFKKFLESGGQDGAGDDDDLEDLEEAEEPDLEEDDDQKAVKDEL
The test is described as follows: MTP-mediated transfer of lipid classes biosynthetically labeled with OA or EPA (donor/acceptor vesicles). It counts as biochemical. The method, then:
FIG. 5 illustrates that Ω-3 lipids are good substrates for MTP-mediated lipid transfer. HepG2 cells were incubated for 14 hr at 37° C. with ^14C-labeled oleate (OA) or ^14C-labeled EPA complexed to BSA (final concentration of either fatty acid was 0.8 mM). Total lipids were extracted from the washed cell monolayers and separated by preparative TLC into triglyceride (TG), cholesteryl ester (CE), phosphatidylcholine (PC), and phosphatidylethanolamine (PE). The isolated lipid classes were then incorporated (to a content of 0.5 mol %) into vesicles that were used as donors in lipid transfer assays with recombinant MTP. Results were normalized to the transfer of [^14C]triolein and are shown as mean values ±SE (n=4).
Three methods were used to assess possible effects of Ω-3 fatty acids on cellular MTP function. First, rat primary hepatocytes were incubated with BSA, OA, or EPA, and then MTP activity in cell lysates was measured using a fluorescent assay (Roar Biomedical, New York, NY). Second, to determine if lipid classes synthesized in the presence of OA or Ω-3 fatty acid are equivalent substrates for MTP, primary rat hepatocytes or HepG2 cells were incubated with tritiated OA or EPA, total cellular lipids were extracted into isopropanol, and biosynthetically labeled cholesteryl ester, triglyceride, and phospholipids were separated by preparative thin layer chromatography. Each of these isolated lipids was incorporated into vesicles that were used as donors in a transfer reaction with acceptor vesicles and […] of purified bovine MTP, as described in Jamil, H., Dickson, J. K., Jr., Chu, C. H., Lago, M. W., Rinehart, J. K., Biller, S. A., Gregg, R. E., and Wetterau, J. R. (1995) J Biol Chem 270(12), 6549-54. As an internal control for lipid transfer, each donor vesicle also contained [^14C]triolein. Third, to determine if Ω-3 lipids inhibit MTP-mediated transfer of non-Ω-3 lipids, artificial donor vesicles were prepared containing either labeled triolein or labeled POPC. The majority of lipid mass in these vesicles was unlabeled phosphatidylcholine that contained either 100% oleate esterified at the sn-2 position (control) or a mixture of 70% oleate and 30% DHA or 30% EPA. Transfer of the labeled lipids to acceptor vesicles in the presence of 50 μg of purified bovine MTP was measured as described in Jamil, H. et al (1995) J Biol Chem 270(12), 6549-54.
An intracellular abundance of relatively poor lipid substrates, produced during incubations of hepatocytes with EPA or DHA, could be functionally equivalent to MTP inhibition. Thus, rat primary hepatocytes and HepG2 cells were incubated with radiolabeled OA or EPA to allow incorporation of these fatty acids into lipid esters. […]

As to `CCCCCCCC/C=C\CCCCCCCC(=O)O` [OA, oleic acid], where the note is “lipids from fatty acid-treated HepG2 cells, P=0.07”, the “MTP-mediated transfer of labeled cholesteryl esters, % of [14C]triolein transfer” value was determined as 20%+4%. In addition, the “MTP-mediated transfer of labeled phosphatidylethanolamines, % of [14C]triolein transfer” value (lipids from fatty acid-treated HepG2 cells, P=0.6) was determined as 1.1%+0.1%. Where the note is “lipids from fatty acid-treated HepG2 cells, P=0.7”, the “MTP-mediated transfer of labeled phosphatidylcholines, % of [14C]triolein transfer” value is recorded as 2.3%+1%. For the same compound, the “MTP-mediated transfer rate of labeled triglycerides, % of [14C]triolein transfer” value (lipids harvested from fatty acid-treated HepG2 cells, P=0.3) is 60%±8%.
